Literature values, collected in patent US20110212960A1, “NEW COMPOUNDS FOR THE TREATMENT OF CNS DISORDER” (BOEHRINGER INGELHEIM INTERNATIONAL GMBH, priority 2009, published 2011).

Assays:
[1] = target: human PDE9A (Homo sapiens, UniProt O76083); conditions: concentrations of up to 100 micromolar; cited from earlier work
[2] = target: T1, Murine PDE9A (Mus musculus, UniProt O70628); conditions: concentrations below 200 micromolar; cited from earlier work
T1 sequence (O70628 1-534): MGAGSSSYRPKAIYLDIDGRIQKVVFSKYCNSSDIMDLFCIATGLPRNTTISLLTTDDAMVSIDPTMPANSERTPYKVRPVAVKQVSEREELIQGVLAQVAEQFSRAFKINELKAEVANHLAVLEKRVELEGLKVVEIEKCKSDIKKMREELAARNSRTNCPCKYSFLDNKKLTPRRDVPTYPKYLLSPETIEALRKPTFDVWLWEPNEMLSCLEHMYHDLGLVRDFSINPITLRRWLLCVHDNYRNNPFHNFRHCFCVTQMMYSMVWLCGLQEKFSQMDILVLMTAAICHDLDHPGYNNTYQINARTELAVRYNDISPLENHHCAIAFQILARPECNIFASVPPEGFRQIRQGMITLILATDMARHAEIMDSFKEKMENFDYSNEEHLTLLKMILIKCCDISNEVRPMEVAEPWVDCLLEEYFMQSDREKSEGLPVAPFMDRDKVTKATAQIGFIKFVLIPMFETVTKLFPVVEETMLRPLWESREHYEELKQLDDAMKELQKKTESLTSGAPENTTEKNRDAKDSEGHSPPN

Sequence of human PDE9A (O76083 whole entry): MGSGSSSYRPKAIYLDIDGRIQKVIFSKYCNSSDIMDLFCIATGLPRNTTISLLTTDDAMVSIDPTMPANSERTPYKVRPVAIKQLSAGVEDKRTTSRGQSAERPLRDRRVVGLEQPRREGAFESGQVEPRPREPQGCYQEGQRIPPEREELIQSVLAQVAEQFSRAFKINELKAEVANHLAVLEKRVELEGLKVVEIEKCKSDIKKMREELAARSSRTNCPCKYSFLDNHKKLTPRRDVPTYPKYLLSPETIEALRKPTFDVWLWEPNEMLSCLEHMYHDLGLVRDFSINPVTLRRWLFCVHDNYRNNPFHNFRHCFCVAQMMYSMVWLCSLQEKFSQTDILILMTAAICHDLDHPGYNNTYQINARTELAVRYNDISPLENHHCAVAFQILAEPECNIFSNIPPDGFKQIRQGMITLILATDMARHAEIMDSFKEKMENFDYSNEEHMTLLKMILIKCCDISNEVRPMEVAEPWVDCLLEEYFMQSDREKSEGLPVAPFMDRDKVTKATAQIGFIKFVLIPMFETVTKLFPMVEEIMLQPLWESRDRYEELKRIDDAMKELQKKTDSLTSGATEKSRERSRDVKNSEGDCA

CC(C)Cn1c(=O)n(C)c(=O)c2[nH]cnc21 [IBMX]
inhibition on the isolated enzyme [1]: no inhibition
inhibition of murine PDE9A [2]: not inhibited
